Reference: the NIST ThermoML archive (doi:10.1021/je050366x)
“And” between values parts separate entries of the source, which are not always exact repeats. Identical values can stand only once. Numbers after ± are expanded uncertainties.

Experiment: xn = mol fraction of the nth substance listed
Settings: for mass density: 100 kPa, Liquid

O=C(O)C(=O)O [ethanedioic acid] + O
Settings	mass density [kg/m3]	surface tension liquid-gas [mN/m]
280.2 K, Ring tensiometer, x1 = 0.00716	–	73.7 ± 1.2
280.5 K, Ring tensiometer, x1 = 0.00716	–	73.7 ± 1.2
281.1 K, Ring tensiometer, x1 = 0.00716	–	73.8 ± 1.2
281.2 K, Ring tensiometer, x1 = 0.00716	–	73.7 ± 1.2
283.9 K, Ring tensiometer, x1 = 0.00716	–	73.3 ± 1.2
284.5 K, Ring tensiometer, x1 = 0.00716	–	73.2 ± 1.2
285.1 K, Ring tensiometer, x1 = 0.00716	–	73.2 ± 1.2
285.7 K, Ring tensiometer, x1 = 0.00716	–	73 ± 1.2
288.2 K, Ring tensiometer, x1 = 0.00716	–	72.7 ± 1.2
288.7 K, Ring tensiometer, x1 = 0.00716	–	72.4 ± 1.2
289.7 K, Ring tensiometer, x1 = 0.00716	–	72.6 ± 1.2
290.1 K, Ring tensiometer, x1 = 0.00716	–	72.4 ± 1.2
292.2 K, Ring tensiometer, x1 = 0.00716	–	72 ± 1.2
293 K, Ring tensiometer, x1 = 0.00716	–	71.9 ± 1.2
293.7 K, Ring tensiometer, x1 = 0.00716	–	71.9 ± 1.2
294.3 K, Ring tensiometer, x1 = 0.00716	–	71.7 ± 1.2
296.2 K, Ring tensiometer, x1 = 0.00716	–	71.3 ± 1.2
297.5 K, Ring tensiometer, x1 = 0.00716	–	71.2 ± 1.2
298 K, Pycnometric method, x1 = 0.002	996 ± 1	–
298 K, Pycnometric method, x1 = 0.003	1001 ± 1	–
298 K, Pycnometric method, x1 = 0.005	1008 ± 1	–
298 K, Pycnometric method, x1 = 0.007	1012 ± 1	–
298 K, Pycnometric method, x1 = 0.008	1016 ± 1	–
298 K, Pycnometric method, x1 = 0.01	1019 ± 1	–
298 K, Pycnometric method, x1 = 0.012	1026 ± 1	–
298 K, Pycnometric method, x1 = 0.013	1030 ± 1	–
298 K, Pycnometric method, x1 = 0.015	1034 ± 1	–
298 K, Ring tensiometer, x1 = 0.00716	–	71.2 ± 1.2
298.5 K, Ring tensiometer, x1 = 0.00716	–	71.1 ± 1.2
301.2 K, Ring tensiometer, x1 = 0.00716	–	70.4 ± 1.2
302.1 K, Ring tensiometer, x1 = 0.00716	–	70.6 ± 1.2
302.8 K, Ring tensiometer, x1 = 0.00716	–	70.3 ± 1.2
304.7 K, Ring tensiometer, x1 = 0.00716	–	70 ± 1.2

O=C(O)CCC(=O)O [butanedioic acid] + O
Ring tensiometer
Settings	surface tension liquid-gas
279.9 K, x1 = 0.00716	70 mN/m
280.1 K, x1 = 0.00716	69.2 mN/m
280.2 K, x1 = 0.00716	70.3 mN/m
280.6 K, x1 = 0.00716	70 mN/m
284 K, x1 = 0.00716	69 mN/m
284.3 K, x1 = 0.00716	69.7 mN/m
284.7 K, x1 = 0.00716	69.3 mN/m
284.8 K, x1 = 0.00716	69.5 mN/m
285 K, x1 = 0.00716	69.6 mN/m
288.4 K, x1 = 0.00716	68.6 mN/m
288.9 K, x1 = 0.00716	69 mN/m and 68.8 mN/m and 68.7 mN/m
292.6 K, x1 = 0.00716	67.8 mN/m
293.1 K, x1 = 0.00716	68.5 mN/m
293.3 K, x1 = 0.00716	68.2 mN/m
293.4 K, x1 = 0.00716	68.2 mN/m
293.6 K, x1 = 0.00716	68.4 mN/m
296.8 K, x1 = 0.00716	67.2 mN/m
297.4 K, x1 = 0.00716	67.7 mN/m
297.6 K, x1 = 0.00716	68 mN/m
297.8 K, x1 = 0.00716	67.8 mN/m
297.9 K, x1 = 0.00716	67.8 mN/m
298 K, x1 = 0.0011	70.9 ± 1.2 mN/m
298 K, x1 = 0.0022	70 ± 1.2 mN/m
298 K, x1 = 0.0028	69.8 ± 1.1 mN/m
298 K, x1 = 0.0033	69.4 ± 1.1 mN/m
298 K, x1 = 0.0045	68.9 ± 1.1 mN/m
298 K, x1 = 0.0056	68.5 ± 1.1 mN/m
298 K, x1 = 0.0067	68.1 ± 1.1 mN/m
298 K, x1 = 0.0071	67.7 ± 1.1 mN/m
298 K, x1 = 0.0078	67.6 ± 1.1 mN/m
298 K, x1 = 0.0089	67.3 ± 1.1 mN/m
298 K, x1 = 0.01	66.6 ± 1.1 mN/m
298 K, x1 = 0.0107	66.9 ± 1.1 mN/m
298 K, x1 = 0.0111	66.4 ± 1.1 mN/m
298 K, x1 = 0.0117	66.7 ± 1.1 mN/m
301.7 K, x1 = 0.00716	67.5 mN/m
301.8 K, x1 = 0.00716	67.1 mN/m
302.3 K, x1 = 0.00716	67.3 mN/m
302.9 K, x1 = 0.00716	67.1 mN/m

298 K
Settings	mass density
x1 = 0.0011	991 ± 2 kg/m3
x1 = 0.0012	997 ± 2 kg/m3
x1 = 0.0022	993 ± 2 kg/m3 and 1003 ± 2 kg/m3
x1 = 0.0028	996 ± 2 kg/m3
x1 = 0.0033	997 ± 2 kg/m3
x1 = 0.0037	1001 ± 2 kg/m3
x1 = 0.0045	998 ± 2 kg/m3
x1 = 0.0047	1002 ± 2 kg/m3
x1 = 0.0056	1001 ± 2 kg/m3
x1 = 0.0067	1002 ± 2 kg/m3
x1 = 0.0068	1008 ± 2 kg/m3
x1 = 0.0078	1005 ± 2 kg/m3
x1 = 0.0089	1007 ± 2 kg/m3
x1 = 0.01	1009 ± 2 kg/m3
x1 = 0.011	1010 ± 2 kg/m3

CC(=O)[C@H]1C[C@@H](CC(=O)O)C1(C)C [cis-pinonic acid] + O
Settings	mass density [kg/m3]	surface tension liquid-gas [mN/m]
280.7 K, Ring tensiometer, x1 = 0.00035	–	61.7 ± 1
282.5 K, Ring tensiometer, x1 = 0.00035	–	61.6 ± 1
283.6 K, Ring tensiometer, x1 = 0.00035	–	61.6 ± 1
283.8 K, Ring tensiometer, x1 = 0.00035	–	61.4 ± 1
284.4 K, Ring tensiometer, x1 = 0.00035	–	61.3 ± 1
285.4 K, Ring tensiometer, x1 = 0.00035	–	61.5 ± 1
287.5 K, Ring tensiometer, x1 = 0.00035	–	61.1 ± 1
288 K, Ring tensiometer, x1 = 0.00035	–	60.8 ± 1
288.8 K, Ring tensiometer, x1 = 0.00035	–	60.8 ± 1
289.1 K, Ring tensiometer, x1 = 0.00035	–	60.9 ± 1
291.9 K, Ring tensiometer, x1 = 0.00035	–	60.4 ± 1
292.5 K, Ring tensiometer, x1 = 0.00035	–	60.7 ± 1
292.9 K, Ring tensiometer, x1 = 0.00035	–	60.5 ± 1
293.9 K, Ring tensiometer, x1 = 0.00035	–	60.2 ± 1
296.8 K, Ring tensiometer, x1 = 0.00035	–	60.1 ± 1
297.1 K, Ring tensiometer, x1 = 0.00035	–	60.2 ± 1
298 K, Pycnometric method, x1 = 0.00018	995 ± 1	–
298 K, Pycnometric method, x1 = 0.00025	993 ± 1	–
298 K, Pycnometric method, x1 = 0.00033	995 ± 1	–
298 K, Pycnometric method, x1 = 0.00041	997 ± 1	–
298 K, Pycnometric method, x1 = 0.0005	996 ± 1	–
298 K, Pycnometric method, x1 = 0.00058	994 ± 1	–
298 K, Pycnometric method, x1 = 0.00066	994 ± 1	–
298 K, Pycnometric method, x1 = 0.00083	997 ± 1	–
298.1 K, Ring tensiometer, x1 = 0.00035	–	59.7 ± 1
301.2 K, Ring tensiometer, x1 = 0.00035	–	59.4 ± 1
301.7 K, Ring tensiometer, x1 = 0.00035	–	59.9 ± 1
302.1 K, Ring tensiometer, x1 = 0.00035	–	59.1 ± 1

298 K
Settings	surface tension liquid-gas [mN/m]
x1 = 2e-05	69.5 ± 2.3
x1 = 4e-05	66.8 ± 2.2
x1 = 0.00011	64.4 ± 2.1
x1 = 0.00018	61.4 ± 2
x1 = 0.00024	61.2 ± 2
x1 = 0.00034	59 ± 2
x1 = 0.00041	57.2 ± 1.9
x1 = 0.0005	56.3 ± 1.9
x1 = 0.00058	55.8 ± 1.9
x1 = 0.00065	56.2 ± 1.9
x1 = 0.00083	53.9 ± 1.8
